Data published in ChEMBL document CHEMBL1122352, “Synthesis and antitumor activity of 2-beta-D-ribofuranosylselenazole-4-carboxamide and related derivatives” (1983).
pIC50: −log10 of the molar value.

Tests used:
Assay type in all cases: functional
L1210 [1] = test: Evaluated for cytotoxicity against L1210 cells; details: Mus musculus, read-out: ID50 (the source's name)
Mus musculus [2] = test: Evaluated for increase in life span in mice inoculated with lewis lung carcinoma at a dose of 1.5 mg/kg (Experiment-2)
Mus musculus [3] = test: Evaluated for increase in life span in mice inoculated with lewis lung carcinoma at a dose of 100 mg/kg (Experiment-1)
Mus musculus [4] = test: Evaluated for increase in life span in mice inoculated with lewis lung carcinoma at a dose of 12 mg/kg (Experiment-1)
Mus musculus [5] = test: Evaluated for increase in life span in mice inoculated with lewis lung carcinoma at a dose of 12 mg/kg (Experiment-2)
Mus musculus [6] = test: Evaluated for increase in life span in mice inoculated with lewis lung carcinoma at a dose of 24 mg/kg (Experiment-2)
Mus musculus [7] = test: Evaluated for increase in life span in mice inoculated with lewis lung carcinoma at a dose of 25 mg/kg (Experiment-1)
Mus musculus [8] = test: Evaluated for increase in life span in mice inoculated with lewis lung carcinoma at a dose of 3 mg/kg (Experiment-2)
Mus musculus [9] = test: Evaluated for increase in life span in mice inoculated with lewis lung carcinoma at a dose of 50 mg/kg (Experiment-1)
Mus musculus [10] = test: Evaluated for increase in life span in mice inoculated with lewis lung carcinoma at a dose of 6 mg/kg (Experiment-2)
Mus musculus [11] = test: Evaluated for median life span in mice inoculated with lewis lung carcinoma at a dose of 1.5 mg/kg (Experiment-2)
Mus musculus [12] = test: Evaluated for median life span in mice inoculated with lewis lung carcinoma at a dose of 100 mg/kg (Experiment-1)
Mus musculus [13] = test: Evaluated for median life span in mice inoculated with lewis lung carcinoma at a dose of 12 mg/kg (Experiment-1)
Mus musculus [14] = test: Evaluated for median life span in mice inoculated with lewis lung carcinoma at a dose of 12 mg/kg (Experiment-2)
Mus musculus [15] = test: Evaluated for median life span in mice inoculated with lewis lung carcinoma at a dose of 200 mg/kg (Experiment-1)
Mus musculus [16] = test: Evaluated for median life span in mice inoculated with lewis lung carcinoma at a dose of 24 mg/kg (Experiment-2)
Mus musculus [17] = test: Evaluated for median life span in mice inoculated with lewis lung carcinoma at a dose of 25 mg/kg (Experiment-1)
Mus musculus [18] = test: Evaluated for median life span in mice inoculated with lewis lung carcinoma at a dose of 3 mg/kg (Experiment-2)
Mus musculus [19] = test: Evaluated for median life span in mice inoculated with lewis lung carcinoma at a dose of 50 mg/kg (Experiment-1)
Mus musculus [20] = test: Evaluated for median life span in mice inoculated with lewis lung carcinoma at a dose of 6 mg/kg (Experiment-2)
P388 = test: Evaluated for cytotoxicity against P-388 cells; details: Mus musculus, read-out: ID50 (the source's name)
L1210 [21] = test: Evaluated for cytotoxicity to L1210 cells; details: Mus musculus, read-out: ID50 (the source's name)
Mus musculus [22] = test: Evaluated for increase in life span in mice inoculated with lewis lung carcinoma at a dose of 13 mg/kg
Mus musculus [23] = test: Evaluated for median life span in mice inoculated with lewis lung carcinoma at a dose of 13 mg/kg
Mus musculus [24] = test: Evaluated for median life span in mice inoculated with lewis lung carcinoma at a dose of 20 mg/kg
Mus musculus [25] = test: Evaluated for median life span in mice inoculated with lewis lung carcinoma at a dose of 33 mg/kg
Mus musculus [26] = test: Evaluated for median life span in mice inoculated with lewis lung carcinoma at a dose of 50 mg/kg
Mus musculus [27] = test: Evaluated for median life span in mice inoculated with lewis lung carcinoma at a dose of 75 mg/kg
Mus musculus [28] = test: Evaluated for median life span in mice inoculated with lewis lung carcinoma at a dose of 9 mg/kg

SMILES: NC(=O)c1c[se]c([C@@H]2O[C@H](CO)[C@@H](O)[C@H]2O)n1
- pIC50 (L1210 [1]): 6.40
- ILS at 1.5 mg/kg (Mus musculus [2]): 10%
- ILS at 100 mg/kg (Mus musculus [3]): 20%
- ILS at 12 mg/kg (Mus musculus [4]): 255%
- ILS at 12 mg/kg (Mus musculus [5]): 197%
- ILS at 24 mg/kg (Mus musculus [6]): 197%
- ILS at 25 mg/kg (Mus musculus [7]): 255%
- ILS at 3 mg/kg (Mus musculus [8]): 53%
- ILS at 50 mg/kg (Mus musculus [9]): 255%
- ILS at 6 mg/kg (Mus musculus [10]): 197%
- MLS (Mus musculus [11]): 22 days
- MLS (Mus musculus [12]): 20.3 days
- MLS (Mus musculus [13]): 60 days
- MLS (Mus musculus [14]): 60 days
- MLS (Mus musculus [15]): 10.7 days
- MLS (Mus musculus [16]): 60 days
- MLS (Mus musculus [17]): 60 days
- MLS (Mus musculus [18]): 31 days
- MLS (Mus musculus [19]): 60 days
- MLS (Mus musculus [20]): 60 days
- pIC50 (P388): 6.52

SMILES: NC(=O)c1c[se]c([C@@H]2O[C@H](COP(=O)(O)O)[C@@H](O)[C@H]2O)n1
- pIC50 (L1210 [21]): 6.41
- ILS at 13 mg/kg (Mus musculus [22]): 215%
- MLS (Mus musculus [23]): 60 days
- MLS (Mus musculus [24]): 12 days
- MLS (Mus musculus [25]): 12.5 days
- MLS (Mus musculus [26]): 12.5 days
- MLS (Mus musculus [27]): 15.5 days
- MLS (Mus musculus [28]): 12.5 days

SMILES: NC(=O)c1csc([C@@H]2O[C@H](CO)[C@@H](O)[C@H]2O)n1 [TIAZOFURIN]
- pIC50 (L1210 [1]): 5.71
